The source of these data is PubChem BioAssay AID489041 (Sanford-Burnham Center for Chemical Genomics, 2010).

SMILES strings stand for the structures. pIC50: −log10 of the molar value. Calls of active or inactive are those of the source. How the calls were made is not given here. Bounds are passed on as bounds.

This experiment deals with HEK-293T NF-kB luciferase reporter counterscreen, luminescence. The experiment can be described thus: inhibitors of HEK-293T NF-kB luciferase – HEK-293T cells, luminescence, counter-screen for T-cell antigen receptor NF-kB inhibitors, dose response (AID 489041). (In general: Counterscreens check selectivity or assay interference.)
The pIC50 is the negative decadic logarithm of the IC50, by convention in mol/L. Take `c1ccc(-c2noc(-c3ccc4ccccc4c3)n2)nc1`: the pIC50 was 5.49. `COC(=O)C1=C(CN2CCCc3ccccc32)NC(=O)NC1c1ccc(F)cc1` (stereo not given): the negative-log IC50 (pIC50) was 5.27. With `O=C(COc1ccc2c(-c3ccccc3)cc(=O)oc2c1)Nc1cccnc1`, the pIC50 is 6.59. In general, IC50 refers to the midpoint of a concentration-inhibition curve. As for `CC(=O)O[C@@]12CO[C@@H]1C[C@H](O)[C@@]1(C)C(=O)[C@H](O)C3=C(C)[C@@H](OC(=O)[C@H](O)[C@@H](NC(=O)c4ccccc4)c4ccccc4)C[C@@](O)([C@@H](OC(=O)c4ccccc4)C12)C3(C)C` (stereo not given in full), the IC50 was > 80 µM (inactive). Same read-out and setting: the figure for `COc1ccc(C(=O)Nc2ccc3[nH]c(-c4cccc(OC)c4)cc(=O)c3c2)cc1` is > 80 µM (inactive). In the case of `COc1ccc(Br)cc1/C(C)=N/NC1=NCCN1`, the pIC50 is 5.01. In the case of `Cc1noc(C)c1COc1cccc(C(=O)OCC(=O)N2CC(=O)Nc3ccccc32)c1`, the IC50 is 24.9 µM (inactive). As for `COCCCNC(=O)C(=O)Nc1ccc2c(c1)N(S(=O)(=O)c1cccs1)CCC2`, the pIC50 is 4.93. Turning to `CCN1C=CC(=C2C(=O)c3ccccc3C2=O)C=C1`, the pIC50 was 6.04.

In the case of `O=C(N/N=C\c1c(O)ccc2ccccc12)c1ccc(S(=O)(=O)N2CCCCC2)cc1`, the IC50 is > 80 µM (inactive). Turning to `O=[N+]([O-])c1ccc(Sc2ccc(Cl)c(Cl)c2)nc1`, the IC50 is 64 µM (inactive). For `COc1cccc(C2CC(=O)Nc3cc4c(cc32)CCC4)c1` (stereo not given), the pIC50 is 4.97. For `CC1CC(C)CN(S(=O)(=O)c2ccc(NC(=O)c3ccc(=O)[nH]c3)cc2)C1` (stereo not given), the pIC50 was 4.90. Take `N#C/C(=C\c1ccc(OCc2ccc(C(=O)O)cc2)cc1)C(=O)N1CCOCC1`: the pIC50 is 5.35.

On to `CC1(C)Cc2nc3sc4c(=O)n(CC(=O)NCc5ccccc5)cnc4c3cc2CO1`, for which the IC50 is > 80 µM (inactive). With `COC(=O)Nc1ccc(S(=O)(=O)N2CCCc3ccccc32)cc1`, the pIC50 is 4.92.

Turning to `CC1=NNC(=O)/C1=C\c1cn(-c2ccccc2)nc1-c1ccc(Cl)cc1`, the negative logarithm of the IC50 (pIC50) was 5.11.

Take `Cc1nc(NCc2ccco2)c2c(C)c(C)sc2n1`: the pIC50 was 5.74. The same measure, in the same setting: the figure for `C/C(=N\NC(=O)c1cc(C)nc2ccccc12)c1ccccn1` is 5.51; for `Cc1ccc(C(=O)O/N=C(\N)c2ccccn2)c(Cl)c1` it is 5.58. For the compound `COc1ccc(OC)c2c1C(=O)C(Cl)=C(Cl)C2=O`, the pIC50 is 5.40. With `CCn1c2ccccc2c2cc(NC(=O)c3cc(OC)c(OC)c(OC)c3)ccc21`, the pIC50 is 5.40. As for `Cc1cccc(N2CCN(C(=O)c3ccc(CS(=O)(=O)c4ccccc4C)o3)CC2C)c1` (stereo not given), the pIC50 is 5.63. Consider `COc1cc2c(c(OC)c1OC)-c1ccc(OC)c(=O)cc1[C@@H](NC(C)=O)CC2`, for which the pIC50 is more than 6.80. `CCOC(=O)c1[nH]c2c(c1C)C(=O)CC(c1ccc(F)cc1)C2` (stereo not given): the IC50 was > 80 µM (inactive). On to `CCOc1ccc(NC(=O)c2cc3c(C)nc4ccccc4c3o2)cc1`, for which the pIC50 was 5.22. As for `O=C(O)c1ccc(N/N=C/c2ccc3c(c2)OCO3)cc1`, the pIC50 is 5.76.

Take `COc1cc(NS(C)(=O)=O)ccc1Nc1c2ccccc2nc2ccccc12`: the IC50 was > 80 µM (inactive). As to `O=C1c2cccc3cc([N+](=O)[O-])cc(c23)C(=O)N1CCN1CCCC1`, the IC50 is > 80 µM (inactive). For `O=C(Nc1ccc(Cl)c(S(=O)(=O)N2CCOCC2)c1)c1ccc(OCC2CCCO2)cc1` (stereo not given), the pIC50 was 5.50. `Cc1cc(C)nc(SCC(=O)Nc2ccnc3ccccc23)n1`: the pIC50 is 5.04. As for `COc1ccc2c(C)nc(Nc3nc(-c4ccccc4)cc(=O)[nH]3)nc2c1`, the negative-log IC50 (pIC50) is 5.81. For the compound `COc1ccc(N(C(=O)c2ccccc2C)S(=O)(=O)c2cccs2)cc1`, the IC50 is > 80 µM (inactive). `Cc1ccc(NS(=O)(=O)c2ccc(C(=O)NC3CCN(Cc4ccccc4)CC3)cc2)cc1`: the pIC50 was 5.12. With `Cc1ccc(NS(=O)(=O)c2ccc(-c3cnc(C4CC4)o3)cc2)c(C)c1`, the pIC50 is 5.83.

As for `O=[N+]([O-])c1ccc(-c2nc(C(Cl)Cl)c3ccccc3n2)cc1`, the IC50 is 54.5 µM (inactive).

Take `COc1ccc(C2=Nn3c(nnc3-c3ccccc3OC)SC2)cc1OC1CCCC1`: the pIC50 is 5.43. Regarding `Cc1ccc2nc(C)c(CN3CCN(c4ccc([N+](=O)[O-])cc4Cl)CC3)n2c1`, the negative logarithm of the IC50 (pIC50) was 5.17.

With `COc1ccc(NC(=O)C(=O)NCC2CCCN2S(=O)(=O)c2ccc(C)cc2)cc1` (stereo not given), the pIC50 is 6.16. Turning to `CCCCCCCCC[n+]1cccc2c3ccccc3ccc21`, the pIC50 was 6.26. For the compound `CCCCCCCn1c2c(c(=N)c3ccccc31)CCC2`, the pIC50 is 6.00.

On to `CCOc1cc(C#N)c(NC(=O)c2cccnc2)cc1OCC`, for which the IC50 is 37.7 µM (inactive).

Take `CCn1ncc(C2=NOC(C(=O)NCc3ccc(Cl)cc3)C2)c1C` (stereo not given): the IC50 is 26 µM (inactive). Same read-out and setting: the figure for `COc1ccc(/C=N/NC(=O)c2[nH]c3ccc(Br)cc3c2-c2ccccc2)cc1` is 21.1 µM (inactive). For the compound `Cc1c(C(=O)N2CCOCC2)[nH]c2c1C(=O)CC(c1ccccc1Cl)C2` (stereo not given), the pIC50 was 4.86. For the compound `O=C1CC(c2cc(Br)ccc2F)c2cc3c(cc2N1)CCC3` (stereo not given), the IC50 is > 80 µM (inactive). For `O=C(NN=Cc1c(O)ccc2ccccc12)c1ccc2c(c1)OCO2`, the pIC50 was 6.13. The same measure, in the same setting: the figure for `Cc1cc(/C=C2\Sc3ccccc3N2C)cc(C)[n+]1CC1CCCO1` (stereo not given) is 5.43. Consider `CC(=O)O[C@H]1C(=O)[C@]2(C)[C@H]([C@H](OC(=O)c3ccccc3)[C@]3(O)C[C@H](OC(=O)[C@H](O)[C@@H](NC(=O)c4ccccc4)c4ccccc4)C(C)=C1C3(C)C)[C@]1(OC(C)=O)CO[C@@H]1C[C@@H]2O`, for which the IC50 was 76.2 µM (inactive). Turning to `COc1ccc(Nc2nc(-c3sc(C)nc3C)cs2)cc1`, the pIC50 was 5.16. For the compound `Nc1nc(-c2ccccc2)cc(N2CCCCC2)n1`, the pIC50 is 5.65. Consider `CC1=C(C(=O)OCc2ccc3c(c2)OCO3)C(c2ccc(Cl)cc2)NC(=O)N1` (stereo not given), for which the pIC50 was more than 6.80.

As for `CC(=O)Nc1ccc(S(=O)(=O)N2CCSc3ccccc32)cc1`, the IC50 is 21.3 µM (inactive). Turning to `CCN(CC)S(=O)(=O)c1ccc(NC(=O)c2ccc(CN3CCOCC3)cc2)cc1`, the pIC50 is 5.60. Consider `C=C(C)COc1ccc(-c2n[nH]c(C)c2-c2ccc(OC)c(OC)c2)c(O)c1`, for which the pIC50 is 5.03. Same read-out and setting: the figure for `Cc1ccc(S(=O)(=O)Nc2ccccc2-c2ccccc2)cc1` is 5.05; for `Cn1cc(/C=N/n2cnc3scc(-c4ccc(Cl)cc4)c3c2=O)c2ccccc21` it is 6.66; for `Cc1nc(SCC(=O)Nc2nc3ccccc3s2)c(C#N)c(C)c1C` it is more than 6.80. With `COc1ccc(N/N=C/c2c(C(=O)O)ccc3ccccc23)cc1`, the pIC50 is 4.80. The same measure, in the same setting: the figure for `COc1ccc(/C=N\NC(=O)c2ccccc2F)cc1COc1ccc(F)cc1F` is 5.07; for `CCOc1cccc(/C=N/Nc2ccc(S(=O)(=O)N(CC)CC)cn2)c1O` it is 6.51. As for `CCOC(=O)Nc1nc(-c2ccccc2)c(C(=O)c2ccccc2)s1`, the IC50 is > 80 µM (inactive). In the case of `COc1ccc(CCNc2cc(N3CCN(C(=O)c4ccccc4F)CC3)ccc2[N+](=O)[O-])cc1OC`, the pIC50 is 6.17. On to `CC(C)(C)c1ccc(C(=O)O/N=C(\N)c2ccccn2)cc1`, for which the pIC50 was 6.64. `CCOC(=O)c1[nH]c(C)c(C(=O)Nc2ccc(C)cc2C)c1C`: the IC50 was 46.1 µM (inactive).
